Where two headings read alike, the source gives them in different places.
Experiments:
Shigella boydii = assay: Expected efficacy of antibiotic agents; details: Gram: neg
Bartonella bacilliformis = assay: Expected efficacy of antibiotic agents; details: Gram: neg
Enterobacter cloacae = assay: Expected efficacy of antibiotic agents; details: Gram: neg
Bordetella pertussis = assay: Expected efficacy of antibiotic agents; details: Gram: neg
Diphtheroids = assay: Expected efficacy of antibiotic agents; details: Gram: pos
Proteus mirabilis = assay: Expected efficacy of antibiotic agents; details: Gram: neg
[1] = system: Viridans group streptococci; assay: Expected efficacy of antibiotic agents; details: Gram: pos
[2] = system: Haemophilus parainfluenzae; assay: Expected efficacy of antibiotic agents; details: Gram: neg
Shigella sonnei = assay: Expected efficacy of antibiotic agents; details: Gram: neg
Streptococcus agalactiae = assay: Expected efficacy of antibiotic agents; details: Gram: pos
Chlamydia trachomatis = assay: Expected efficacy of antibiotic agents; details: Gram: n/a
Providencia rettgeri = assay: Expected efficacy of antibiotic agents; details: Gram: neg
[3] = system: Klebsiella (Calymmato-bacterium) granulomatis; assay: Expected efficacy of antibiotic agents; details: Gram: neg
[4] = system: Staphylococcus epidermidis; assay: Expected efficacy of antibiotic agents; details: Gram: pos
Clostridium difficile = assay: Expected efficacy of antibiotic agents; details: Gram: anaer
Acinetobacter lwoffii = assay: Expected efficacy of antibiotic agents; details: Gram: neg
Streptococcus pyogenes = assay: Expected efficacy of antibiotic agents; details: Gram: pos
[5] = system: Staphylococcus aureus (MSSA); assay: Expected efficacy of antibiotic agents; details: Gram: pos
Enterobacter sakazakii = assay: Expected efficacy of antibiotic agents; details: Gram: neg
Vibrio cholerae = assay: Expected efficacy of antibiotic agents; details: Gram: neg
Salmonella typhi = assay: Expected efficacy of antibiotic agents; details: Gram: neg
Klebsiella oxytoca = assay: Expected efficacy of antibiotic agents; details: Gram: neg
Escherichia coli = assay: Expected efficacy of antibiotic agents; details: Gram: neg
Mycoplasma pneumoniae = assay: Expected efficacy of antibiotic agents; details: Gram: n/a
Klebsiella pneumoniae = assay: Expected efficacy of antibiotic agents; details: Gram: neg
Enterobacter aerogenes = assay: Expected efficacy of antibiotic agents; details: Gram: neg
Shigella dysenteriae = assay: Expected efficacy of antibiotic agents; details: Gram: neg
Corynebacterium jeikeium = assay: Expected efficacy of antibiotic agents; details: Gram: pos
Bacteroides fragilis = assay: Expected efficacy of antibiotic agents; details: Gram: anaer
Neisseria gonorrhoeae = assay: Expected efficacy of antibiotic agents; details: Gram: neg
Citrobacter freundii = assay: Expected efficacy of antibiotic agents; details: Gram: neg
Morganella morganii = assay: Expected efficacy of antibiotic agents; details: Gram: neg
Peptostreptococcus = assay: Expected efficacy of antibiotic agents; details: Gram: pos
Providencia stuartii = assay: Expected efficacy of antibiotic agents; details: Gram: neg
Campylobacter jejuni = assay: Expected efficacy of antibiotic agents; details: Gram: neg
[6] = system: Corynebacterium urealyticum; assay: Expected efficacy of antibiotic agents; details: Gram: pos
Acinetobacter baumannii = assay: Expected efficacy of antibiotic agents; details: Gram: neg
Haemophilus ducreyi = assay: Expected efficacy of antibiotic agents; details: Gram: neg
Pseudomonas fluorescens = assay: Expected efficacy of antibiotic agents; details: Gram: neg
[7] = system: Acinetobacter calcoaceticus; assay: Expected efficacy of antibiotic agents; details: Gram: neg
Citrobacter diversus = assay: Expected efficacy of antibiotic agents; details: Gram: neg
Neisseria meningitidis = assay: Expected efficacy of antibiotic agents; details: Gram: neg
Serratia marcescens = assay: Expected efficacy of antibiotic agents; details: Gram: neg
Enterococcus faecium = assay: Expected efficacy of antibiotic agents; details: Gram: pos
Moraxella catarrhalis = assay: Expected efficacy of antibiotic agents; details: Gram: neg
Chlamydia pneumoniae = assay: Expected efficacy of antibiotic agents; details: Gram: n/a
Shigella flexneri = assay: Expected efficacy of antibiotic agents; details: Gram: neg
Pseudomonas aeruginosa = assay: Expected efficacy of antibiotic agents; details: Gram: neg
Proteus vulgaris = assay: Expected efficacy of antibiotic agents; details: Gram: neg
Haemophilus influenzae = assay: Expected efficacy of antibiotic agents; details: Gram: neg
[8] = system: Methicillin resistant staphaureus (MRSA); assay: Expected efficacy of antibiotic agents; details: Gram: pos
Enterococcus faecalis = assay: Expected efficacy of antibiotic agents; details: Gram: pos
Streptococcus pneumoniae = assay: Expected efficacy of antibiotic agents; details: Gram: pos

CN[C@H](CC(C)C)C(=O)N[C@H]1C(=O)N[C@@H](CC(N)=O)C(=O)N[C@H]2C(=O)N[C@H]3C(=O)N[C@H](C(=O)N[C@H](C(=O)O)c4cc(O)cc(O)c4-c4cc3ccc4O)[C@H](O)c3ccc(c(Cl)c3)Oc3cc2cc(c3O[C@@H]2O[C@H](CO)[C@@H](O)[C@H](O)[C@H]2O[C@H]2C[C@](C)(N)[C@H](O)[C@H](C)O2)Oc2ccc(cc2Cl)[C@H]1O [Vancomycin]
yes: Expected efficacy against Diphtheroids (Diphtheroids) | Expected efficacy against Viridans group streptococci [1] | Expected efficacy against Streptococcus agalactiae (Streptococcus agalactiae) | Expected efficacy against Staphylococcus epidermidis [4] | Expected efficacy against Clostridium difficile (Clostridium difficile) | Expected efficacy against Streptococcus pyogenes (Streptococcus pyogenes) | Expected efficacy against Staphylococcus aureus (MSSA) [5] | Expected efficacy against Corynebacterium jeikeium (Corynebacterium jeikeium) | Expected efficacy against Peptostreptococcus (Peptostreptococcus) | Expected efficacy against Corynebacterium urealyticum [6]
no: Expected efficacy against Shigella boydii (Shigella boydii) | Expected efficacy against Bartonella bacilliformis (Bartonella bacilliformis) | Expected efficacy against Enterobacter cloacae (Enterobacter cloacae) | Expected efficacy against Legionella pneumophila (Legionella pneumophila) | Expected efficacy against Bordetella pertussis (Bordetella pertussis) | Expected efficacy against Proteus mirabilis (Proteus mirabilis) | Expected efficacy against Brucella species (Brucella species) | Expected efficacy against Haemophilus parainfluenzae [2] | Expected efficacy against Shigella sonnei (Shigella sonnei) | Expected efficacy against Chlamydia trachomatis (Chlamydia trachomatis) | Expected efficacy against Clostridium perfringens (Clostridium perfringens) | Expected efficacy against Providencia rettgeri (Providencia rettgeri) | Expected efficacy against Klebsiella (Calymmato-bacterium) granulomatis [3] | Expected efficacy against Francisella tularensis (Francisella tularensis) | Expected efficacy against Acinetobacter lwoffii (Acinetobacter lwoffii) | Expected efficacy against Enterobacter sakazakii (Enterobacter sakazakii) | Expected efficacy against Vibrio cholerae (Vibrio cholerae) | Expected efficacy against Salmonella typhi (Salmonella typhi) | Expected efficacy against Klebsiella oxytoca (Klebsiella oxytoca) | Expected efficacy against Escherichia coli (Escherichia coli) | Expected efficacy against Mycoplasma pneumoniae (Mycoplasma pneumoniae) | Expected efficacy against Klebsiella pneumoniae (Klebsiella pneumoniae) | Expected efficacy against Enterobacter aerogenes (Enterobacter aerogenes) | Expected efficacy against Shigella dysenteriae (Shigella dysenteriae) | Expected efficacy against Bacteroides fragilis (Bacteroides fragilis) | Expected efficacy against Neisseria gonorrhoeae (Neisseria gonorrhoeae) | Expected efficacy against Citrobacter freundii (Citrobacter freundii) | Expected efficacy against Morganella morganii (Morganella morganii) | Expected efficacy against Providencia stuartii (Providencia stuartii) | Expected efficacy against Campylobacter jejuni (Campylobacter jejuni) | Expected efficacy against Acinetobacter baumannii (Acinetobacter baumannii) | Expected efficacy against Haemophilus ducreyi (Haemophilus ducreyi) | Expected efficacy against Pseudomonas fluorescens (Pseudomonas fluorescens) | Expected efficacy against Acinetobacter calcoaceticus [7] | Expected efficacy against Citrobacter diversus (Citrobacter diversus) | Expected efficacy against Neisseria meningitidis (Neisseria meningitidis) | Expected efficacy against Serratia marcescens (Serratia marcescens) | Expected efficacy against Rickettsiae (Rickettsiae) | Expected efficacy against Yersinia pestis (Yersinia pestis) | Expected efficacy against Moraxella catarrhalis (Moraxella catarrhalis) | Expected efficacy against Chlamydia pneumoniae (Chlamydia pneumoniae) | Expected efficacy against Shigella flexneri (Shigella flexneri) | Expected efficacy against Pseudomonas aeruginosa (Pseudomonas aeruginosa) | Expected efficacy against Proteus vulgaris (Proteus vulgaris) | Expected efficacy against Haemophilus influenzae (Haemophilus influenzae) | Expected efficacy against Chlamydia psittaci (Chlamydia psittaci)
yes, not VRE: Expected efficacy against Enterococcus faecium (Enterococcus faecium)

Colistimethate
yes: Expected efficacy against Enterobacter cloacae (Enterobacter cloacae) | Expected efficacy against Klebsiella (Calymmato-bacterium) granulomatis [3] | Expected efficacy against Staphylococcus aureus (MSSA) [5] | Expected efficacy against Enterobacter sakazakii (Enterobacter sakazakii) | Expected efficacy against Klebsiella pneumoniae (Klebsiella pneumoniae) | Expected efficacy against Pseudomonas aeruginosa (Pseudomonas aeruginosa)
no: Expected efficacy against Legionella pneumophila (Legionella pneumophila; Gram: neg) | Expected efficacy against Methicillin resistant staphaureus (MRSA) [8] | Expected efficacy against Bordetella pertussis (Bordetella pertussis) | Expected efficacy against Enterococcus faecalis (Enterococcus faecalis) | Expected efficacy against Diphtheroids (Diphtheroids) | Expected efficacy against Proteus mirabilis (Proteus mirabilis) | Expected efficacy against Viridans group streptococci [1] | Expected efficacy against Brucella species (Brucella species; Gram: neg) | Expected efficacy against Haemophilus parainfluenzae [2] | Expected efficacy against Streptococcus agalactiae (Streptococcus agalactiae) | Expected efficacy against Chlamydia trachomatis (Chlamydia trachomatis) | Expected efficacy against Providencia rettgeri (Providencia rettgeri) | Expected efficacy against Streptococcus pneumoniae (Streptococcus pneumoniae) | Expected efficacy against Staphylococcus epidermidis [4] | Expected efficacy against Clostridium difficile (Clostridium difficile) | Expected efficacy against Streptococcus pyogenes (Streptococcus pyogenes) | Expected efficacy against Vibrio cholerae (Vibrio cholerae) | Expected efficacy against Mycoplasma pneumoniae (Mycoplasma pneumoniae) | Expected efficacy against Corynebacterium jeikeium (Corynebacterium jeikeium) | Expected efficacy against Bacteroides fragilis (Bacteroides fragilis) | Expected efficacy against Neisseria gonorrhoeae (Neisseria gonorrhoeae) | Expected efficacy against Peptostreptococcus (Peptostreptococcus) | Expected efficacy against Providencia stuartii (Providencia stuartii) | Expected efficacy against Corynebacterium urealyticum [6] | Expected efficacy against Neisseria meningitidis (Neisseria meningitidis) | Expected efficacy against Serratia marcescens (Serratia marcescens) | Expected efficacy against Enterococcus faecium (Enterococcus faecium) | Expected efficacy against Moraxella catarrhalis (Moraxella catarrhalis) | Expected efficacy against Chlamydia pneumoniae (Chlamydia pneumoniae) | Expected efficacy against Proteus vulgaris (Proteus vulgaris) | Expected efficacy against Chlamydia psittaci (Chlamydia psittaci; Gram: n/a)

From patent US9717748B2, “Compositions and methods for treating an infection” (CMPD LICENSING, LLC, priority 2015, dated 2017)
